Experimental data taken from patent US20120053155A1, “SYSTEM AND METHOD FOR REVERTING ANTIBIOTIC TOLERANCE OF BACTERIAL PERSISTER CELLS” (Syracuse University, priority 2010, published 2012).

Key:
[1] = tested on: P. aeruginosa PAO1 persister cells; assay: Antibiotic (Cip) susceptibility of isolated persister cells; format: cell-based, Pseudomonas aeruginosa; conditions: for reverting antibiotic tolerance of persisters: different concentrations, 0.85% NaCl buffer, Cip
Description: (§1) Pseudomonas aeruginosa PAO1 was routinely grown in Luria-Bertani (LB) medium. To isolate persister cells, an overnight culture was incubated for 18 h at 37° C. with shaking at 200 rpm, washed twice with 0.85% NaCl buffer, resuspended in the same buffer and then treated with 200 μg/mL Cip for 3.5 h to lyse the regular cells. The remaining persister cells were then harvested by centrifugation at 13,200 rpm for 3 min at room temperature and then treated with or without furanones as described below.
(§2) To obtain persisters, 3 mL of overnight culture of P. aeruginosa PAO1 was incubated for 3.5 h with 200 μg/mL Cip to kill all regular cells. The remaining persisters were washed twice with and resuspended in 0.85% NaCl buffer with 1:50 dilution. Samples were taken immediately to count the CFUs of persisters. Then, each 5 mL of 0.85% NaCl buffer containing persister cells was treated for 3.5 h with 0, 0.1, 0.5, 1 and 2 μg/mL of BF8. The amount of ethanol was adjusted to be the same for all samples. CFUs of treated persister cells were counted to understand if BF8 has any effects on the viability of persister cells.
The persister cells treated with BF8 as described above were then treated again with 200 μg/mL Cip to understand if any persister cells restored susceptibility to Cip. The CFUs were counted as described above.

[2] = tested on: Vibrio harveyi BB886 quorum sensing based on homoserine lactones; assay: Quorum sensing assay (bioluminescence of reporter strain); format: cell-based; conditions: 10 μg/mL; V. harveyi BB886; bioluminescence at 5 h after inoculation
Description: To understand the effects of BFs on quorum sensing, the reporter strain Vibrio harveyi BB886 was used to monitor the quorum sensing based on homoserine lactones. Briefly, an overnight culture of this strain was diluted by 1:5000 in autoinducer bioassay medium with BFs supplemented at different concentrations. The bioluminescence was measured at 5 h after inoculation.

P. aeruginosa PAO1 = assay: Effect on persister formation in subcultures (CFU after Cip treatment); format: cell-based, Pseudomonas aeruginosa
Description: A P. aerugionsa PAO1 overnight culture was sub-cultured into 6 tubes with 5 mL fresh LB medium in each with the optical density at 600 nm (OD600) adjusted to 0.05. Each tube contained different concentrations of BF8 (0, 5, 10, 30, 50 and 100 μg/mL) diluted from a 60 mg/mL stock solution. The amount of ethanol was adjusted to be the same for all samples to eliminate solvent effects. After 5 h of incubation, 2 mL sample from each tube was washed and plated on LB agar plates for counting colony forming units (“CFU”); while 3 mL of sample was added with 200 μg/mL Cip and incubated for 3.5 h to count the numbers of cells that remained as persisters.
To compare with the effects of sugars known to promote antibiotic uptake by persisters, the above experiment was repeated using 10 mM glucose and mannitol instead of BF8.

[3] = tested on: P. aeruginosa PAO1 persister cells; assay: Viability of isolated persister cells (CFU); format: cell-based, Pseudomonas aeruginosa; conditions: up to 2 μg/mL; 0.85% NaCl buffer
Description: as §1, §2

[4] = tested on: P. aeruginosa PAO1 persister cells; assay: DNA microarray analysis of gene expression in persister cells; format: cell-based, Pseudomonas aeruginosa; conditions: 1 μg/mL, 1 h
Description: Persister cells were harvested from a 100 mL 18-h culture of P. aeruginosa PAO1. The isolated persister cells were resuspended in 0.85% NaCl buffer supplemented with 1 μg/mL (3.7 μM) BF8 or with the same amount of ethanol (4.17 μL to eliminate the solvent effect as the control). After incubation at 37° C. for 1 h, cells were collected by centrifugation at 10,000 rpm for 5 minutes at 4° C., transferred to 2 mL pre-cooled microcentrifuge tubes and frozen in an ethanol-dry ice bath. The cell pellets were stored at −80° C. until RNA isolation.
The RNeasy Mini Kit (Qiagen) was used to isolate total RNA. First, the cells were lysed by beating at 4,800 oscillations/min using a mini-bead beater (Biospec Products Inc., Bartlesville, Okla.) with 0.5-mm glass beads, 900 uL RLT buffer and 1% 2-Mercaptoethanol. The total RNA was extracted following the manufacture's protocol with additional wash with RW1 buffer, RPE buffer and DNase treatment (RNase-Free DNase Set, Qiagen). The RNA samples were sent to the DNA microarray Facilities at SUNY Upstate Medical University for microarray hybridization.

With `O=C1OC(=C(Br)Br)C=C1C(Br)Br` [BF10] the “reverting antibiotic tolerance of persisters” value (“reverting antibiotic tolerance” for short) [1] was “revert antibiotic tolerance in a dose dependent manner”.

`CC1=C(Br)/C(=C/Br)OC1=O` [BF8] was tested, and the “response of the reporter strain to homoserine lactones” value [2] was “completely eliminated”, the “cells persistent (retaining antibiotic tolerance) after treatment” value (P. aeruginosa PAO1; 100 μg/mL BF8, 5 h incubation, 200 μg/mL Cip) was 1.6% and the “reduction of the number of persister cells formed compared to the furanone-free control” value (P. aeruginosa PAO1; 100 μg/mL, 5 h incubation in LB medium, 200 μg/mL Cip 3.5 h) was “up to 100 times”. For the same compound, the “killing effects on persister cells (viability)” value [3] was “did not exhibit any significant killing effects”, the “persister cells rendered sensitive to Cip” value ([1]; 2 μg/mL, then 200 μg/mL Cip) was “around 90%” and the “susceptibility of persisters to Cip” value ([1]; 0.5, 1 and 2 μg/mL, then 200 μg/mL Cip) was “more susceptible to Cip”. For the same compound, the “Expression Ratio PA0182” value ([4]; gene PA0182 (3-ketoacyl-(acyl-carrier-protein) reductase)) was 97.1, the “Expression Ratio PA0422” value ([4]; gene PA0422 (hypothetical protein)) was 4.2 and the “Expression Ratio PA0565” value ([4]; gene PA0565 (hypothetical protein)) was 12.8. For the same compound, the “Expression Ratio PA0741” value ([4]; gene PA0741 (hypothetical protein)) was 16.5, the “Expression Ratio PA1127” value ([4]; gene PA1127 (oxidoreductase)) was 3.4 and the “Expression Ratio PA1210” value ([4]; gene PA1210 (hypothetical protein)) was 21. For the same compound, the “Expression Ratio PA1285” value ([4]; gene PA1285 (transcriptional regulator)) was 4.4, the “Expression Ratio PA1334” value ([4]; gene PA1334 (oxidoreductase)) was 227.6 and the “Expression Ratio PA1374” value ([4]; gene PA1374 (hypothetical protein)) was 3.4. The “Expression Ratio PA1470” value ([4]; gene PA1470 (short chain dehydrogenase)) was 4.1, the “Expression Ratio PA2196” value ([4]; gene PA2196 (transcriptional regulator)) was 4.8 and the “Expression Ratio PA2378” value ([4]; gene PA2378 (aldehyde dehydrogenase)) was 3.1. For the same compound, the “Expression Ratio PA2535” value ([4]; gene PA2535 (oxidoreductase)) was 9, the “Expression Ratio PA2575” value ([4]; gene PA2575 (hypothetical protein)) was 9.1 and the “Expression Ratio PA2580” value ([4]; gene PA2580 (hypothetical protein)) was 8.3. The “Expression Ratio PA2610” value ([4]; gene PA2610 (hypothetical protein)) was 7.2, the “Expression Ratio PA2691” value ([4]; gene PA2691 (hypothetical protein)) was 3.7 and the “Expression Ratio PA2839” value ([4]; gene PA2839 (hypothetical protein)) was 11. For the same compound, the “Expression Ratio PA2931” value ([4]; gene PA2931 (CifR)) was 11, the “Expression Ratio PA2932_morB” value ([4]; gene PA2932_morB (morphinone reductase)) was 64.9 and the “Expression Ratio PA3133” value ([4]; gene PA3133 (transcriptional regulator)) was 3.5. For the same compound, the “Expression Ratio PA3223_acpD” value ([4]; gene PA3223_acpD (AzoR3, azoreductase 3)) was 4.8, the “Expression Ratio PA3240” value ([4]; gene PA3240 (hypothetical protein)) was 14.4 and the “Expression Ratio PA3523” value ([4]; gene PA3523 (RND efflux membrane fusion protein precursor)) was 9.6. For the same compound, the “Expression Ratio PA3920” value ([4]; gene PA3920 (metal transporting P-type ATPase)) was 3.9, the “Expression Ratio PA4167” value ([4]; gene PA4167 (2,5-diketo-D-gluconate reductase B)) was 510.6 and the “Expression Ratio PA4173” value ([4]; gene PA4173 (hypothetical protein)) was 36.7. For the same compound, the “Expression Ratio PA4878” value ([4]; gene PA4878 (transcriptional regulator)) was 4.2.

For `CC1=C(Br)C(C(Br)Br)OC1=O` (centres unmarked) [BF14], the “reverting antibiotic tolerance” value [1] was “revert antibiotic tolerance in a dose dependent manner”.

In the case of `O=C1OC(=C(Br)Br)C=C1CBr` [BF11], the “reverting antibiotic tolerance” value [1] is reported as “revert antibiotic tolerance in a dose dependent manner”.

`CC1=CC(=C(Br)Br)OC1=O` [BF9] was tested, and the “reverting antibiotic tolerance” value [1] was “revert antibiotic tolerance in a dose dependent manner”.
